Test results published in article PMC6690547, “The triphenylmethane dye brilliant blue G is only moderately effective at inhibiting amyloid formation by human amylin or at disaggregating amylin amyloid fibrils, but interferes with amyloid assays; Implications for inhibitor design” (PLoS ONE, 2019).

Target: T1, human amylin (h-amylin) (Homo sapiens, UniProt P10997)
T1 construct: gene IAPP; synthetic 37 residue polypeptide with a disulfide bridge connecting Cys-2 and Cys-7 and an amidated C-terminus; measured as amyloid fibrils
T1 sequence (P10997 34-70): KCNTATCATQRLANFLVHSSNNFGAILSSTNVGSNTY
Test: co-sedimentation of BBG with h-amylin amyloid fibrils (supernatant absorbance at […] nm); supported by TEM/AFM of inhibited and remodeled fibrils and loss of thioflavin-T signal
Assay type: binding
Source text: The result is consistent with binding of BBG to h-amylin amyloid fibers

CCOc1ccc(Nc2ccc(/C(=C3C=C/C(=[N+](/CC)Cc4cccc(S(=O)(=O)[O-])c4)C=C/3C)c3ccc(N(CC)Cc4cccc(S(=O)(=O)O)c4)cc3C)cc2)cc1 [BBG, Sodium;3-[[4-[(E)-[4-(4-ethoxyanilino)phenyl]-[4-[ethyl-[(3-sulfonatophenyl)methyl]azaniumylidene]-2-methylcyclohexa-2,5-dien-1-ylidene]methyl]-N-ethyl-3-methylanilino]methyl]benzenesulfonate]
co-sedimentation of BBG with h-amylin amyloid fibrils (supernatant absorbance at): significant BBG pellets with the fiber. The result is consistent with binding of BBG to h-amylin amyloid fibers
